This is an account of results in ChEMBL document CHEMBL2021786, “The discovery of 2-fluoro-N-(3-fluoro-4-(5-((4-morpholinobutyl)amino)-1,3,4-oxadiazol-2-yl)phenyl)benzamide, a full agonist of the alpha-7 nicotinic acetylcholine receptor showing efficacy in the novel object recognition model of cognition enhancement” (Bioorg Med Chem Lett, 2012).

One series relates to MDR1. Nature of the series: Intrinsic permeability of the compound in MDCK cells expressing MDR1. The format is ADME, cell-based, Canis lupus familiaris. To be noted: dog.
Series [1] in a line: Tmax in po dosed rat. To be noted: in vivo. The series is classed as ADME, organism-based.
The nature of series [2]: Tmax in Sprague-Dawley rat at 3 mg/kg, po. The series is classed as ADME, organism-based. Also on record: dose 3 mg/kg, route oral. To be noted: in vivo.
For series [3], the system named is Liver. Nature of the series: Clearance in human liver assessed per gram of tissue. The series is classed as ADME, tissue-based.
For series [4], the system named is Liver. As to the kind of experiment: Clearance in rat liver assessed per gram of tissue. The series is classed as ADME, tissue-based. To be noted: in vivo.
The nature of series [5]: Ratio of drug level in brain to blood in CD1 mouse at 5 mg/kg, po after 3 hrs. The format is ADME, organism-based. Also on record: dose 5 mg/kg, route oral.
Series [6] is described as follows: Half life in Sprague-Dawley rat at 1 mg/kg, iv. The series is classed as ADME, organism-based. Set-up: dose 1 mg/kg, route intravenous. To be noted: in vivo.
Series [7] can be described thus: Blood clearance in Sprague-Dawley rat at 1 mg/kg, iv. The series is classed as ADME, organism-based. Also on record: dose 1 mg/kg, route intravenous.
Series [8] can be described thus: Oral bioavailability in Sprague-Dawley rat at 3 mg/kg. The format is ADME, organism-based. To be noted: in vivo.
In the next series the test system is Blood. Nature of the series: Drug level in novel object recognition model of rat blood at 0.1 mg/kg, po. Also on record: dose 0.1 mg/kg, route oral. The note with it: in vivo, read-out: Drug uptake. The series is classed as ADME, organism-based.
The nature of series [9]: Ratio of drug level in brain to blood in Lister Hooded rat at 3 mg/kg, po after 3 hrs. The series is classed as ADME, organism-based. Also on record: dose 3 mg/kg, route oral.

A value given as a limit tells only on which side of the number the result lay.

Consider `O=C(Nc1ccc(-c2nnc(NCCCN3CCN4CCC3CC4)o2)cc1)c1ccccc1F`, for which the Papp – broadly, a coefficient for how fast a substance crosses the barrier – in the series with MDR1 stood at 4.2 ×10⁻⁶ cm/s.

`COc1cc(NC(=O)c2ccccc2F)ccc1-c1nnc(NCCCN2CCCCC2)o1`: the Tmax (in general, the time from dosing to the highest level) in series [1] turned out to be 3 h.

For the compound `O=C(Nc1ccc(-c2nnc(NCCCCN3CCOCC3)o2)c(F)c1)c1ccccc1`, the Papp in the series with MDR1 stood at 28.5 ×10⁻⁶ cm/s.

`O=C(Nc1ccc(-c2nnc(NCCCCN3CCCCC3)o2)cc1)c1ccccc1` yielded a Papp in the series with MDR1 of 33.7 ×10⁻⁶ cm/s.

`O=C(Nc1ccc(-c2nnc(NCCCCN3CCOCC3)o2)cc1)c1ccccc1F`: the time of peak concentration (Tmax) in series [2] turned out to be 1 h. For the same compound, the Papp in the series with MDR1 was 75.6 ×10⁻⁶ cm/s. Besides, the CLH was less than 0.5 mL/min/g in the series on Liver [3] and 0.8 mL/min/g in the series on Liver [4]. For the same compound, in [5], the Kp – broadly, the ratio of the level in a tissue or fluid to that in plasma or blood – at 3 h turned out to be 0.62. Also, in series [6], the half-life (commonly the time in which the quantity being followed falls by half) was 1.6 h. For the same compound, in series [7], the clearance (in general, the rate of elimination divided by the concentration) was determined as 37 mL/min/kg. Further, in series [8], the bioavailability (as a rule, the share of a dose that reaches the circulation, judged against a reference dose that is usually intravenous) is 22%.

Consider `O=C(Nc1ccc(-c2nnc(NCCCCN3CCCCC3)o2)cc1)C1CCCCC1`, for which, in the series on MDR1, the Papp amounted to 9.8 ×10⁻⁶ cm/s.

In turn, `O=C(Nc1ccc(-c2nnc(NCCCCN3CCC(F)CC3)o2)cc1)c1ccccc1F` yielded a Papp in the series on MDR1 of 70.3 ×10⁻⁶ cm/s.

In the series on MDR1, `COc1cc(NC(=O)c2ccccc2F)ccc1-c1nnc(NCCCCN2CCOCC2)o1` returned a Papp of 57.3 ×10⁻⁶ cm/s.

Turning to `O=C(Nc1ccc(-c2nnc(NCCCCN3CCOCC3)o2)c(F)c1)c1ccccc1F`, the time of peak concentration (Tmax) in [2] is 1 h. The compound further came in with a Papp in the series with MDR1 of 73.6 ×10⁻⁶ cm/s. Further, the CLH in the series on Liver [3] and with Liver [4] was less than 0.5 mL/min/g throughout. For the same compound, the concentration with Blood turned out to be 10.5 nM. In addition, the Kp at 3 h in [5] worked out at 0.53. The compound further had a clearance in series [7] of 54 mL/min/kg. This compound also gave a bioavailability in series [8] of 20%.

For the compound `O=C(Nc1ccc(-c2nnc(NCCCCN3CCCCC3)o2)cc1)c1ccccc1F`, the Papp in the series with MDR1 was 127 ×10⁻⁶ cm/s. Further, in series [9], the Kp at 3 h came out at 0.99. Besides, the CLH in the series on Liver [3] is 0.5 mL/min/g; in the series on Liver [4] it was less than 0.5 mL/min/g. In addition, the half-life in [6] was 2.7 h. The compound further returned a clearance in [7] of 42 mL/min/kg.

With `COc1cc(NC(=O)c2ccccc2F)ccc1-c1nnc(NCCCCN2CCCCC2)o1`, the Papp in the series on MDR1 worked out at 25.1 ×10⁻⁶ cm/s.
